Test [1] has as its target T1, Integrin alpha-4/beta-1 (Homo sapiens, UniProt P05556+P13612). The test is described as follows: Inhibition of Very late antigen 4 (VLA-4) of Ramos cell adhesion to vascular cell adhesion molecule 1 (VCAM-1). Format: cell-based.
The target of test [2] is T1, Integrin alpha-4/beta-1. The test is described as follows: Inhibition of Very late antigen 4/vascular cell adhesion molecule 1 interaction in ELISA. The class given is protein-complex assay. (In general: ELISA stands for enzyme-linked immunosorbent assay.)
Test [3] deals with T1, Integrin alpha-4/beta-1. As to the kind of experiment: Inhibitory binding concentration determined against VCAM/VLA-4 in Ramos. Format: protein-complex assay.
Test [4] deals with T1, Integrin alpha-4/beta-1. The test is described as follows: Inhibitory binding concentration determined against VCAM/VLA-4 in ELISA. The class given is protein-complex assay.

For orientation: IC50 means the point on the concentration scale where inhibition reaches its midpoint. Higher therefore signals a need for much substance.

T1 sequence (P05556 whole entry): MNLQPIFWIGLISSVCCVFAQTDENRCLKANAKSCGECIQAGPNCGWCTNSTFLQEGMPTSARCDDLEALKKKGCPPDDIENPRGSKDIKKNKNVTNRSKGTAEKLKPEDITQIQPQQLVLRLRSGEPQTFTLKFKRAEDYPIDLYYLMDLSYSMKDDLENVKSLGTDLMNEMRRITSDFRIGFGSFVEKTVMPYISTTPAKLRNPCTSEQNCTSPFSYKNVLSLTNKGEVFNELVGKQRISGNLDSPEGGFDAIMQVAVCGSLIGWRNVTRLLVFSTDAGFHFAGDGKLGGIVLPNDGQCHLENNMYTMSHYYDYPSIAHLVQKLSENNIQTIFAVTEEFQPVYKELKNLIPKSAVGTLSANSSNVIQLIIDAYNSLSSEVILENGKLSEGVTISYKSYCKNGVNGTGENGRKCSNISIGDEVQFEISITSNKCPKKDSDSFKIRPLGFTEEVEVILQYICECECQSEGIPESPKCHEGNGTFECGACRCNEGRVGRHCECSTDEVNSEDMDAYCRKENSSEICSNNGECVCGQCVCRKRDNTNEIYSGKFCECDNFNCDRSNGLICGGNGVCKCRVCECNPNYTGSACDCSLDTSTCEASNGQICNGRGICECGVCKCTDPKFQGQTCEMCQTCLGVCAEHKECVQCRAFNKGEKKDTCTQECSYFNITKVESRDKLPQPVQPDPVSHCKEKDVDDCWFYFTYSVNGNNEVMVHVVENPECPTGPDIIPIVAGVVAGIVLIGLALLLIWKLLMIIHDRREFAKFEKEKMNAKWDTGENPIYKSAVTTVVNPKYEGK
T1 sequence (P13612 whole entry): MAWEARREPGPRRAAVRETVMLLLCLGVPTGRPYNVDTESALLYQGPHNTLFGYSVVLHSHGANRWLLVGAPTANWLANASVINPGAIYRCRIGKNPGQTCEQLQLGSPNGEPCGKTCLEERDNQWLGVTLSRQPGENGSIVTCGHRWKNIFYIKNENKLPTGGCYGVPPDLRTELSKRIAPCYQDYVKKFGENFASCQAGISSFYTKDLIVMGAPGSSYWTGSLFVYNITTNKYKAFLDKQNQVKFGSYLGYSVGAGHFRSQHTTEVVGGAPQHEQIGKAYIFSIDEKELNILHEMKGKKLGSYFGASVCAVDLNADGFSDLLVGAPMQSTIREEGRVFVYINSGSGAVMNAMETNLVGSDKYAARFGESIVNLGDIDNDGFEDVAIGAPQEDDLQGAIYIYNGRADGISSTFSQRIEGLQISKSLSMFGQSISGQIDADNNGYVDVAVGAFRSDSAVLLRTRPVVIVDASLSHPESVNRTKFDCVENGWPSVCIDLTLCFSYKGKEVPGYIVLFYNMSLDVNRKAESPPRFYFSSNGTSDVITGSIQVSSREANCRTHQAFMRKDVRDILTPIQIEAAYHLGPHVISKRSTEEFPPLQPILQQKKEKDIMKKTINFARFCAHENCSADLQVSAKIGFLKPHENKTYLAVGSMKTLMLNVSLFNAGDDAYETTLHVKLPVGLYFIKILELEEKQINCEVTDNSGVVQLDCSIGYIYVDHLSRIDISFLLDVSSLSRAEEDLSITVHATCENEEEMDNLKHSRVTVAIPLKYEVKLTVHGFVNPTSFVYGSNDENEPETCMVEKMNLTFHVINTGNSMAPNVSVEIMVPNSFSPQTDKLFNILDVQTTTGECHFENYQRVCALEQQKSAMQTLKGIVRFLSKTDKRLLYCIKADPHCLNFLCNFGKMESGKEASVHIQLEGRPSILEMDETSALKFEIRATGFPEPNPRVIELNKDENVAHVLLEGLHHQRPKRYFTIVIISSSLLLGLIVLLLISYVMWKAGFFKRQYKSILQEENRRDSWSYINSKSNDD

As for `CS(=O)(=O)CCCCC1(C(=O)N[C@@H](Cc2ccc(NC(=O)c3c(Cl)cccc3Cl)cc2)C(=O)O)CCC1`, the IC50 against Integrin alpha-4/beta-1 [1] worked out at 6 nM; against Integrin alpha-4/beta-1 [2], 0.1 nM.

As to `COc1ccc(CC2(C(=O)N[C@@H](Cc3ccc(NC(=O)c4c(Cl)cccc4Cl)cc3)C(=O)O)CCCC2)cc1`, the half-maximal inhibitory concentration (IC50) at Integrin alpha-4/beta-1 [3] amounted to 37 nM; on Integrin alpha-4/beta-1 [4], 0.6 nM. With `CSCCCCC1(C(=O)N[C@@H](Cc2ccc(NC(=O)c3c(Cl)cccc3Cl)cc2)C(=O)O)CCCC1`, on Integrin alpha-4/beta-1 [2], the 50% inhibitory concentration (IC50) was 1.1 nM. `Cn1nnnc1-c1ccc(CC2(C(=O)N[C@@H](Cc3ccc(NC(=O)c4c(Cl)cccc4Cl)cc3)C(=O)O)CCCC2)cc1` had a concentration for half-maximal inhibition (IC50) at Integrin alpha-4/beta-1 [3] of 19 nM. With `Cn1nnnc1-c1cccc(CC2(C(=O)N[C@@H](Cc3ccc(NC(=O)c4c(Cl)cccc4Cl)cc3)C(=O)O)CCCC2)c1`, the half-maximal inhibitory concentration (IC50) amounted to 100 nM on Integrin alpha-4/beta-1 [3] and 0.4 nM on Integrin alpha-4/beta-1 [4]. On to `COc1cccc(CC2(C(=O)N[C@@H](Cc3ccc(NC(=O)c4c(Cl)cccc4Cl)cc3)C(=O)O)CCCC2)c1`, for which the IC50 at Integrin alpha-4/beta-1 [3] was found to be 170 nM.

With `COCCC1(C(=O)N[C@@H](Cc2ccc(NC(=O)c3c(Cl)cccc3Cl)cc2)C(=O)O)CCC1`, the figures for the half-maximal inhibitory concentration (IC50) at Integrin alpha-4/beta-1 [3] and on Integrin alpha-4/beta-1 [4] were 17 nM and 0.61 nM, respectively. With `COc1ccc(CC2(C(=O)N[C@@H](Cc3ccc(NC(=O)c4c(Cl)cccc4Cl)cc3)C(=O)O)CCCC2)cc1OC`, the concentration for half-maximal inhibition (IC50) at Integrin alpha-4/beta-1 [3] stood at 95 nM; on Integrin alpha-4/beta-1 [4] it was 0.8 nM. `CC(=O)CCCC1(C(=O)N[C@@H](Cc2ccc(NC(=O)c3c(Cl)cccc3Cl)cc2)C(=O)O)CCCC1`: the IC50 at Integrin alpha-4/beta-1 [3] is 350 nM; on Integrin alpha-4/beta-1 [4], 7.8 nM. On the same counts, the results for `CNC(=O)NCCC1(C(=O)N[C@@H](Cc2ccc(NC(=O)c3c(Cl)cccc3Cl)cc2)C(=O)O)CCCC1` are 11 nM and 0.1 nM. As to `CS(=O)(=O)CCCCC1(C(=O)N[C@@H](Cc2ccc(NC(=O)c3c(Cl)cccc3Cl)cc2)C(=O)O)CCCC1`, the IC50 against Integrin alpha-4/beta-1 [1] came to 8 nM; at Integrin alpha-4/beta-1 [2] it was 0.15 nM. `N#CCCCCC1(C(=O)N[C@@H](Cc2ccc(NC(=O)c3c(Cl)cccc3Cl)cc2)C(=O)O)CCCC1` had an IC50 on Integrin alpha-4/beta-1 [4] of 0.52 nM. Consider `[N-]=[N+]=NCCC1(C(=O)N[C@@H](Cc2ccc(NC(=O)c3c(Cl)cccc3Cl)cc2)C(=O)O)CCCC1`, for which, on Integrin alpha-4/beta-1 [4], the half-maximal inhibitory concentration (IC50) came to 0.53 nM. This IC50 and that of the compound before are within 1.5-fold of each other. For `COCC1(C(=O)N[C@@H](Cc2ccc(NC(=O)c3c(Cl)cccc3Cl)cc2)C(=O)O)CCCC1`, the IC50 was found to be 134 nM at Integrin alpha-4/beta-1 [3] and 1 nM at Integrin alpha-4/beta-1 [4]. On Integrin alpha-4/beta-1 [3], `COCCCCC1(C(=O)N[C@@H](Cc2ccc(NC(=O)c3c(Cl)cccc3Cl)cc2)C(=O)O)CCCC1` had an IC50 of 29 nM. Same read-out and setting: to `C=CCCC1(C(=O)N[C@@H](Cc2ccc(NC(=O)c3c(Cl)cccc3Cl)cc2)C(=O)O)CCCC1` belongs 64 nM. `N#CCC1(C(=O)N[C@@H](Cc2ccc(NC(=O)c3c(Cl)cccc3Cl)cc2)C(=O)O)CCCC1` displayed an IC50 at Integrin alpha-4/beta-1 [4] of 1.1 nM. As for `[N-]=[N+]=NCCCCC1(C(=O)N[C@@H](Cc2ccc(NC(=O)c3c(Cl)cccc3Cl)cc2)C(=O)O)CCCC1`, the values for the IC50 on Integrin alpha-4/beta-1 [3] and at Integrin alpha-4/beta-1 [4] were 142 nM and 1.64 nM, respectively. The matching figures for `O=C(Nc1ccc(C[C@H](NC(=O)C2(Cc3ccccc3)CCCC2)C(=O)O)cc1)c1c(Cl)cccc1Cl`: 340 nM and 6.6 nM. Regarding `O=C(NCCC1(C(=O)N[C@@H](Cc2ccc(NC(=O)c3c(Cl)cccc3Cl)cc2)C(=O)O)CCCC1)Nc1ccccc1`, the results for the IC50 on Integrin alpha-4/beta-1 [3] and at Integrin alpha-4/beta-1 [4] were 914 nM and 5.8 nM, respectively. `NC(=O)NCCC1(C(=O)N[C@@H](Cc2ccc(NC(=O)c3c(Cl)cccc3Cl)cc2)C(=O)O)CCCC1` displayed an IC50 at Integrin alpha-4/beta-1 [4] of 0.46 nM.

`O=C(Nc1ccc(C[C@H](NC(=O)C2(c3ccccc3)CCCC2)C(=O)O)cc1)c1c(Cl)cccc1Cl` registered an IC50 on Integrin alpha-4/beta-1 [4] of 1.7 nM. This IC50 is about 3.7-fold higher than that of the compound before. As to `CS(=O)(=O)CCC1(C(=O)N[C@@H](Cc2ccc(NC(=O)c3c(Cl)cccc3Cl)cc2)C(=O)O)CCCC1`, the IC50 on Integrin alpha-4/beta-1 [2] worked out at 0.8 nM. Take `Cn1nnnc1-c1ccc(CC2(C(=O)N[C@@H](Cc3ccc(NC(=O)c4c(Cl)cccc4Cl)cc3)C(=O)O)CCCCC2)cc1`: the 50% inhibitory concentration (IC50) was determined as 61 nM at Integrin alpha-4/beta-1 [3] and 1.3 nM on Integrin alpha-4/beta-1 [4]. For the compound `C[S+]([O-])CCC1(C(=O)N[C@@H](Cc2ccc(NC(=O)c3c(Cl)cccc3Cl)cc2)C(=O)O)CCCC1` (some centres undefined), the IC50 on Integrin alpha-4/beta-1 [2] was 0.21 nM. Consider `O=C(Nc1ccc(C[C@H](NC(=O)C2(Cc3ccccc3Cl)CCCC2)C(=O)O)cc1)c1c(Cl)cccc1Cl`, for which the IC50 on Integrin alpha-4/beta-1 [3] stood at 350 nM. That is a sub-micromolar value. For `CS(=O)(=O)CCCC1(C(=O)N[C@@H](Cc2ccc(NC(=O)c3c(Cl)cccc3Cl)cc2)C(=O)O)CCCC1`, the results for the IC50 on Integrin alpha-4/beta-1 [1] and on Integrin alpha-4/beta-1 [2] were 528 nM and 1.8 nM, respectively. On Integrin alpha-4/beta-1 [3], `COCCC1(C(=O)N[C@@H](Cc2ccc(NC(=O)c3c(Cl)cccc3Cl)cc2)C(=O)O)CCCC1` registered an IC50 of 12 nM. Regarding `CN(C)CCC1(C(=O)N[C@@H](Cc2ccc(NC(=O)c3c(Cl)cccc3Cl)cc2)C(=O)O)CCCC1`, the half-inhibitory concentration (IC50) at Integrin alpha-4/beta-1 [3] worked out at 89 nM; on Integrin alpha-4/beta-1 [4] it was 3.4 nM.

These data come from ChEMBL document CHEMBL1135311, “N-Cycloalkanoyl-L-phenylalanine derivatives as VCAM/VLA-4 antagonists” (Bioorg Med Chem Lett, 2002).
